Patent US10590086B2, “Pharmaceutical compound” (IOmet Pharma Ltd., priority 2014, dated 2020)
Read-outs that look alike come from different tables or passages of the source.

How the values were obtained:
IDO [1] = target: T1, IDO (Homo sapiens, UniProt P14902); experiment: hIDO biochemical coupled assay; details: 45 μM L-tryptophan, read-out: hIDO biochemical assay pIC50 (converted)
TDO = TDO (Homo sapiens, UniProt P48775); experiment: A172 kynurenine cell-based assay; design: This assay utilised cancer cells which expressed either TDO or IDO; endogenous in cells; host or cells: A172 (human glioblastoma); details: A172 human glioblastoma cells, 48 hours, read-out: A172 Kynurenine cell based assay pIC50 (converted)
TDO, sequence (P48775 whole entry): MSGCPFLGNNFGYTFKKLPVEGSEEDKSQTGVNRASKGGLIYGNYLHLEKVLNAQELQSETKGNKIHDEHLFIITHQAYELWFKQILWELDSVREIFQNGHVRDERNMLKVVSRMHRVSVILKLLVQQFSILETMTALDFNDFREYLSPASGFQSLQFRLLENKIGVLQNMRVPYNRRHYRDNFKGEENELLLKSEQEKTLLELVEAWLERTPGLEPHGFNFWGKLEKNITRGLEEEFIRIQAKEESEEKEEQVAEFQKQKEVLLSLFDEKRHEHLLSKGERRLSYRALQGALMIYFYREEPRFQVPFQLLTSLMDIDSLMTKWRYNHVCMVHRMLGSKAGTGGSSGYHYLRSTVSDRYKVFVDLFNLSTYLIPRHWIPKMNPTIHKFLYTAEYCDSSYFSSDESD
Experimental: (§1) Exemplary compounds of the invention were prepared, and tested to determine their effect as TDO and/or IDO inhibitors. Two different assays were employed: 1. a cell-based assay for detecting the effect of test compounds on kynurenine production in two different cancer cell types. This assay utilised cancer cells which expressed either TDO or IDO and as such was used as a means of testing compound activity at these two enzymes in a cell-based context. 2. a TDO and IDO biochemical coupled assay which utilised recombinantly produced and purified TDO and IDO enzymes in combination with the enzyme formamidase. This coupled enzyme system allowed conversion of N-formylkynurenine produced by TDO or IDO activity to kynurenine which was then quantified by fluorescence following addition of Erhlich's Reagent The protocols for these are set out below.
(§2) Cell Based Assay for Detection of Kynurenine Produced by TDO and/or IDO
(§3) A172 (human glioblastoma) and SKOV3 (human ovarian adenocarcinoma) cells were seeded in a 96 well plate at 30,000 or 40,000 cells per well respectively in phenol red-free RPMI supplemented with 10% FCS, 2 mM L-glutamine and 500 μM L-tryptophan. IDO expression was induced in the SKOV3 cells by the addition of 500 ng/ml IFN-γ. Cells were incubated at 37° C. with or without the addition of test compound. After 48 hours, the cells were removed by centrifugation and Erhlich's reagent was added to the supernatant. The Erhlich's reagent was incubated for 5 minutes before the absorbance was read at 490 nm.

IDO [2] = target: T1, IDO; experiment: SKOV3 kynurenine cell-based assay (IDO induced by IFN-γ); design: IDO expression was induced in the SKOV3 cells by the addition of 500 ng/ml IFN-γ; endogenous in cells; host or cells: SKOV3 (human ovarian adenocarcinoma), induced with IFN-γ; details: 48 hours, read-out: SKOV3 Kynurenine cell based assay pIC50 (converted)
Experimental: as §1, §2, §3

[3] = SKOV3 human ovarian adenocarcinoma cells, 500 ng/ml IFN-γ, 500 μM L-tryptophan

T1 sequence (P14902 whole entry): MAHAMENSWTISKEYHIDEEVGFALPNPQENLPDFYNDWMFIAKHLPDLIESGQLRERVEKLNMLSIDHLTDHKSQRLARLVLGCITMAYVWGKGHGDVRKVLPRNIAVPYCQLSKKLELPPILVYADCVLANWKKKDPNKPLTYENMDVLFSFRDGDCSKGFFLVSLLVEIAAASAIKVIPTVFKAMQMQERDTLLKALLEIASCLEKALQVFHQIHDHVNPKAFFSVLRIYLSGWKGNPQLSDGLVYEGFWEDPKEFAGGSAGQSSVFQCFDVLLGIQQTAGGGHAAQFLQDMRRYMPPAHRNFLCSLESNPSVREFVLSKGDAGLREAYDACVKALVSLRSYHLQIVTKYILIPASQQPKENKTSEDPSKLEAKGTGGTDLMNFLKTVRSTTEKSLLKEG

SMILES | IC50 (IDO [1]) [µM] | IC50 (TDO; 500 μM L-tryptophan) [µM] | IC50 (TDO) [µM] | IC50 (IDO [2]; SKOV3 cells, IDO induced by 500 ng/ml IFN-γ) [µM] | IC50 (IDO [2]; [3]) [µM] | IC50 (IDO [1]; 17 minutes, room temperature) [µM]
CC(=O)NC1CCC(c2cc(Cl)cc3[nH]ncc23)CC1 (mixture of isomers) [Compound 155, N-(4-(6-chloro-1H-indazol-4-yl)cyclohexyl) acetamide] | 191 | < 3.16 | 0.24 | 12.3 | 3.24 to 31.6 | 
CCc1cc(N2CCN(S(C)(=O)=O)CC2)c2cn[nH]c2c1 [Compound 158] |  | 3.24 to 31.6 |  |  | 3.24 to 31.6 | 
CS(=O)(=O)N1CCC(Oc2cc(Cl)cc3[nH]ncc23)CC1 [Compound 159] |  | 3.24 to 31.6 |  |  | 3.24 to 31.6 | 
CC(=O)N1CCC(Oc2cc(Cl)cc3[nH]ncc23)CC1 [Compound 160] |  | < 3.16 |  |  | 3.24 to 31.6 | 
CCc1cc(N2CCN(S(C)(=O)=O)C(C)(C)C2)c2cn[nH]c2c1 [Compound 161] |  | < 3.16 |  |  | < 3.16 | 
COCCn1ncc2c(OC3CCN(S(C)(=O)=O)CC3)cc(Cl)cc21 [Compound 162] |  | > 100 |  |  | 32.4 to 100 | 
CS(=O)(=O)N1CCC(Oc2cc(Cl)cc3c2cnn3CCO)CC1 [Compound 163] |  | > 100 |  |  | 32.4 to 100 | 
CN1CCN(c2cc(Cl)cc3[nH]ncc23)CC1(C)C [Compound 164] |  | < 3.16 |  |  | 32.4 to 100 | 
O=C(C1CC1)N1CCC(c2cc(Cl)cc3[nH]ncc23)CC1 [Compound 165] |  | < 3.16 |  |  | 32.4 to 100 | 
CC(C)C(=O)N1CCC(c2cc(Cl)cc3[nH]ncc23)CC1 [Compound 166] |  | < 3.16 |  |  | 32.4 to 100 | 
O=C(CO)N1CCC(c2cc(Cl)cc3[nH]ncc23)CC1 [Compound 167] |  | < 3.16 |  |  | 3.24 to 31.6 | 
NC(=O)N1CCC(c2cc(Cl)cc3[nH]ncc23)CC1 [Compound 168] |  | < 3.16 |  |  | 3.24 to 31.6 | 
CS(=O)(=O)N1CCN(c2cc(C3CCOCC3)cc3[nH]ncc23)CC1 [Compound 169] |  | 3.24 to 31.6 |  |  | > 100 | 
CCC(=O)N1CCC(c2cc(Cl)cc3[nH]ncc23)CC1 [Compound 170] |  | < 3.16 |  |  | 3.24 to 31.6 | 
CC1(C)CN(c2cc(-c3ncco3)cc3[nH]ncc23)CCN1S(C)(=O)=O [Compound 171] |  | 3.24 to 31.6 |  |  | > 100 | 
CNS(=O)(=O)N1CCC(c2cc(Cl)cc3[nH]ncc23)CC1 [Compound 172] |  | < 3.16 |  |  | 3.24 to 31.6 | 
CN(C)S(=O)(=O)N1CCC(c2cc(Cl)cc3[nH]ncc23)CC1 [Compound 173] |  | < 3.16 |  |  | 3.24 to 31.6 | 
NS(=O)(=O)N1CCC(c2cc(Cl)cc3[nH]ncc23)CC1 [Compound 174] |  | < 3.16 |  |  | 3.24 to 31.6 | 
CC1(C)CC(c2cc(Cl)cc3[nH]ncc23)CCN1S(C)(=O)=O (stereo not shown) [Compound 175] |  | < 3.16 |  |  | 3.24 to 31.6 | 

SMILES | IC50 (IDO [1]) [µM] | IC50 (TDO; 500 μM L-tryptophan) [µM] | IC50 (TDO) [µM] | IC50 (IDO [2]; SKOV3 cells, IDO induced by 500 ng/ml IFN-γ) [µM] | IC50 (IDO [2]; [3]) [µM] | IC50 (IDO [1]; 17 minutes, room temperature) [µM]
COCC(=O)N1CCC(c2cc(Cl)cc3[nH]ncc23)CC1 [Compound 176] |  | < 3.16 |  |  | 3.24 to 31.6 | 
CC(O)C(=O)N1CCC(c2cc(Cl)cc3[nH]ncc23)CC1 (stereo not shown) [Compound 177] |  | < 3.16 |  |  | 3.24 to 31.6 | 
CS(=O)(=O)c1ccc(Nc2cc(Cl)cc3[nH]ncc23)cc1 [Compound 180] |  | 3.24 to 31.6 |  |  | 32.4 to 100 | 
CS(=O)(=O)N1CCN(c2cc(Cl)cc3[nH]ncc23)CC12CCC2 [Compound 181] |  | < 3.16 |  |  | < 3.16 | 
CC(=O)N1CCN(c2cc(Cl)cc3[nH]ncc23)CC12CCC2 [Compound 182] |  | < 3.16 |  |  | 3.24 to 31.6 | 
CN1C(=O)NC(=O)C12CCN(c1cc(Cl)cc3[nH]ncc13)CC2 [Compound 184] |  | < 3.16 |  |  | 3.24 to 31.6 | 
O=C1NC(=O)C2(CCN(c3cc(C(F)(F)F)cc4[nH]ncc34)CC2)N1 [Compound 185] |  | < 3.16 |  |  | < 3.16 | 
CS(=O)(=O)N1CCN(c2cc(C(F)(F)F)cc3[nH]ncc23)c2ccccc21 [Compound 186] |  | > 100 |  |  | 3.24 to 31.6 | 
CC1(C)CC(c2cccc3[nH]ncc23)CCN1S(C)(=O)=O (stereo not shown) [Compound 187] |  | 3.24 to 31.6 |  |  | 32.4 to 100 | 
O=S(=O)(C1CC1)N1CCC(c2cc(Cl)cc3[nH]ncc23)CC1 [Compound 188] |  | < 3.16 |  |  | 3.24 to 31.6 | 
O=C1NCCC12CCN(c1cc(Cl)cc3[nH]ncc13)CC2 [Compound 189] |  | 3.24 to 31.6 |  |  | 3.24 to 31.6 | 
CC(=O)N1CCC(c2cccc3[nH]ncc23)CC1(C)C (stereo not shown) [Compound 190] |  | < 3.16 |  |  | 3.24 to 31.6 | 
CC(C)(O)C(=O)N1CCC(c2cc(Cl)cc3[nH]ncc23)CC1 [Compound 191] |  | < 3.16 |  |  | > 100 | 
CS(=O)(=O)NC1CCN(c2cc(Cl)cc3[nH]ncc23)C1 (stereo not shown) [Compound 193] |  | < 3.16 |  |  | 3.24 to 31.6 | 
CS(=O)(=O)N1CCN(c2cc(C#N)cc3[nH]ncc23)CC1 [Compound 194] |  | 3.24 to 31.6 |  |  | 3.24 to 31.6 | 
O=C(N1CCC(c2cc(Cl)cc3[nH]ncc23)CC1)C1(O)CC1 [Compound 195] |  | < 3.16 |  |  | 3.24 to 31.6 | 
C[C@@H]1CN(S(C)(=O)=O)CCN1c1cc(Cl)cc2[nH]ncc12 [Compound 197] |  | < 3.16 |  |  | 3.24 to 31.6 | 
C[C@H]1CN(S(C)(=O)=O)CCN1c1cc(Cl)cc2[nH]ncc12 [Compound 200] |  | < 3.16 |  |  | 3.24 to 31.6 | 
CC(=O)N1CC2CC1CN2c1cc(Cl)cc2[nH]ncc12 (stereo not shown) [Compound 201] |  | 3.24 to 31.6 |  |  | 32.4 to 100 | 

SMILES | IC50 (IDO [1]) [µM] | IC50 (TDO; 500 μM L-tryptophan) [µM] | IC50 (TDO) [µM] | IC50 (IDO [2]; SKOV3 cells, IDO induced by 500 ng/ml IFN-γ) [µM] | IC50 (IDO [2]; [3]) [µM] | IC50 (IDO [1]; 17 minutes, room temperature) [µM]
CS(=O)(=O)N1CC2CC1CN2c1cc(Cl)cc2[nH]ncc12 (stereo not shown) [Compound 202] |  | < 3.16 |  |  | 32.4 to 100 | 
CS(=O)(=O)NC1CCC(c2cc(Cl)cc3[nH]ncc23)CC1 (stereo not shown) [Compound 203] |  | < 3.16 |  |  | 3.24 to 31.6 | 
O=C(C1COC1)N1CCN(c2cc(Cl)cc3[nH]ncc23)CC1 [Compound 204] |  | < 3.16 |  |  | > 100 | 
O=C(C1COC1)N1CCC(c2cc(Cl)cc3[nH]ncc23)CC1 [Compound 205] |  | < 3.16 |  |  | > 100 | 
CS(=O)(=O)N1CCC(c2cc(N3CCOCC3)cc3[nH]ncc23)CC1 [Compound 206] |  | 3.24 to 31.6 |  |  | > 100 | 
C[C@@H]1CN(S(C)(=O)=O)CCN1c1cc(C(F)(F)F)cc2[nH]ncc12 [Compound 208] |  | < 3.16 |  |  | 3.24 to 31.6 | 
CS(=O)(=O)Nc1ccc(-c2cc(Cl)cc3[nH]ncc23)cc1 [Compound 220] |  | < 3.16 |  |  | 3.24 to 31.6 | > 100
CS(=O)(=O)N1CCN(c2cc(OC(F)(F)F)cc3[nH]ncc23)CC1 [Compound 221] |  | 3.24 to 31.6 |  |  | 32.4 to 100 | > 100
CC(=O)N1CCC(c2cc(C(C)C)cc3[nH]ncc23)CC1 [Compound 222] |  | 3.24 to 31.6 |  |  | 32.4 to 100 | 3.24 to 31.6
CC(C)c1cc(C2CCN(S(C)(=O)=O)CC2)c2cn[nH]c2c1 [Compound 223] |  | 3.24 to 31.6 |  |  | 32.4 to 100 | 3.24 to 31.6
O=C1NC2(CCO1)CCN(c1cc(Cl)cc3[nH]ncc13)CC2 [Compound 224] |  | < 3.16 |  |  | 32.4 to 100 | 32.4 to 100
CN(C)C(=O)C1CCN(c2cc(Cl)cc3[nH]ncc23)CC1 [Compound 225] |  | 3.24 to 31.6 |  |  | 3.24 to 31.6 | 3.24 to 31.6
CS(=O)(=O)NC1CCCN(c2cc(Cl)cc3[nH]ncc23)C1 (stereo not shown) [Compound 229] |  | 3.24 to 31.6 |  |  | 32.4 to 100 | > 100
CS(=O)(=O)N1CC2CCC1CN2c1cc(Cl)cc2[nH]ncc12 (stereo not shown) [Compound 230] |  | < 3.16 |  |  | 32.4 to 100 | > 100
CC(=O)N1CC2CCC1CN2c1cc(Cl)cc2[nH]ncc12 (stereo not shown) [Compound 233] |  | < 3.16 |  |  | 3.24 to 31.6 | 32.4 to 100
COC(=O)C1CCN(c2cc(Cl)cc3[nH]ncc23)CC1 [Compound 234] |  | < 3.16 |  |  | 32.4 to 100 | 3.24 to 31.6
Clc1cc(N2CCC(c3ncc[nH]3)CC2)c2cn[nH]c2c1 [Compound 235] |  | < 3.16 |  |  | 3.24 to 31.6 | > 100
CC(C)NC(=O)c1cc(Cl)cc2[nH]ncc12 [Compound 236] |  | 32.4 to 100 |  |  | 32.4 to 100 | > 100
O=C(NCc1ccccc1)c1cc(Cl)cc2[nH]ncc12 [Compound 237] |  | 32.4 to 100 |  |  | 32.4 to 100 | > 100
